Measurements from patent US11976083B2, “Inhibitors of peptidylarginine deiminases” (Gilead Sciences, Inc., priority 2020, dated 2024).

Molecular target: T1, human PAD4 (Homo sapiens, UniProt Q9UM07)
T1 construct: human PAD4 (NM_012387), A2-P663, was PCR amplified; His-SUMO (N, cleaved yes); made in house; host or cells: E. coli BL21(DE3)
Assay: In vitro PAD4 BAEE biochemical assay
Conditions: BAEE substrate 3 mM, 5 nM PAD4, 2 mM calcium chloride; geometric mean of multiple experiments
In short: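 Recombinant PAD4 (5 nM final) with 2 mM CaCl2 was preincubated with compound for 30 min at 25 °C in MOPS pH 7.6 buffer with DTT, then reacted with 3 mM BAEE for 2 h at 25 °C. Released ammonia was detected fluorimetrically with o-phthalaldehyde/DTT; IC50 from four-parameter fit, geometric mean of experiments.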

T1 sequence (Q9UM07 2-663): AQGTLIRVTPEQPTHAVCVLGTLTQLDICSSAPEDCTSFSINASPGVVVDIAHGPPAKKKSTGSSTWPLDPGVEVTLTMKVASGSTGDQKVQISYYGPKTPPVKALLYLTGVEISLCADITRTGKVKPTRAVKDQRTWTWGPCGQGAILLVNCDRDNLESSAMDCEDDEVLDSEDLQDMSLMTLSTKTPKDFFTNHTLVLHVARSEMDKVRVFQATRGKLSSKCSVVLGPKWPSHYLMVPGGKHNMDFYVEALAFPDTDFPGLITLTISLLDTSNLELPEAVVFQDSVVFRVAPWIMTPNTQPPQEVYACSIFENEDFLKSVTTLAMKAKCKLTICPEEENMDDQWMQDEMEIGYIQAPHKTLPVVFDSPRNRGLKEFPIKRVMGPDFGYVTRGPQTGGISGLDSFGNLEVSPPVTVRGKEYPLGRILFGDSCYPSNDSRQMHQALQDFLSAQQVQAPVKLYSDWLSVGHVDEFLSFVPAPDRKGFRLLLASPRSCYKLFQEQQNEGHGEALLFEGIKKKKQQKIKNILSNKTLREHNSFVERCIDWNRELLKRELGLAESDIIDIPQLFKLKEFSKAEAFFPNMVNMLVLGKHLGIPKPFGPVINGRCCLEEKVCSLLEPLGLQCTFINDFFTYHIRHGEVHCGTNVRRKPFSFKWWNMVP

IC50 | Compound
68 nM | CO[C@@H]1CCN(C(=O)c2cc(F)c3c(c2)nc(-c2cc4ccc5nc4n2CCCCCc2ccnc(C)c2C(=O)N[C@@H]5C)n3C2CC2)C[C@@H]1N [Example 698, (2~{R})-17-[5-[(3~{S),4~ {R})-3-amino-4-methoxy-piperidine-1-carbonyl]-1-cyclopropyl-7-fluoro-benzimidazol-2-yl]-2,6-dimethyl-3,7,16,22-tetrazatetracyclo[14.5.2.0^ {5,10).0^{19,23}]tricosa-1(22),5(10),6,8,17,19(23),20-heptaen-4-one]
111 nM | COc1cc(C(=O)N2[C@H]3CC[C@@H]2[C@H](N)C3)cc2nc(-c3cc4ccc5cc4n3CCCCCCC(C)(C)C(=O)Nc3ncccc3-5)n(C)c12 [Example 99, 18-[5-[(1~{R},2~{R},4~{S})-2-amino-7-azabicyclo[2.2.1]heptane-7-carbonyl]-7-methoxy-1-methyl-benzimidazol-2-yl]-10,10-dimethyl-6,8,17-triazatetracyclo[15.5.2.0^{2,7}.0^{20,24}] tetracosa-1(23),2(7),3,5,18,20(24),21-heptaen-9-one]
32 nM | COc1cc(C(=O)N2[C@H]3CC[C@@H]2[C@H](N)C3)cc2nc(-c3cc4ccc5nc4n3CCCCOCCC(=O)N[C@@H]5C)c(C)n12 [Example 321, (11~{R})-17-[7-[(1~{R},2~{R},4~{S})-2-amino-7-azabicyclo[2.2.1]heptane-7-carbonyl]-5-methoxy-3-methyl-imidazo[1,2-a]pyridin-2-yl]-11-methyl-6-oxa-1,10,19-triazatricyclo[10.5.2.0^{15,18}]nonadeca-12(19),13,15(18),16-tetraen-9-one]
60 nM | COc1cc(C(=O)N2CC[C@@H](OC)[C@@H](N)C2)cc2nc(-c3cc4ccc5nc4n3CCCCCc3ccnc(Cl)c3C(=O)N[C@@H]5C)n(C)c12 [Example 655, (2~{R})-17-[5-[(3~{S},4~{R})-3-amino-4-methoxy-piperidine-1-carbonyl]-7-methoxy-1-methyl-benzimidazol-2-yl]-6-chloro-2-methyl-3,7,16,22-tetrazatetracyclo[14.5.2.0^ {5,10}.0^{19,23}] tricosa-1(22),5,7,9,17,19(23), 20-heptaen-4-one]
65 nM | CO[C@@H]1CCN(C(=O)c2cc(F)c3c(c2)nc(-c2cc4ccc5nc4n2CCCCC[C@@H]2CC2C(=O)N[C@@H]5C)n3C)C[C@@H]1N (stereo partly shown) [Example 512, (2~{R},5~{R},7~ {R})-14-[5-[(3~{S},4~{R})-3-amino-4-methoxy-piperidine-1-carbonyl]-7-fluoro-1-methyl-benzimidazol-2-yl]-2-methyl-3,13,19-triazatetracyclo[11.5.2.0^ {5,7}.0^{16,20}]icosa-1(19),14,16(20),17-tetraen-4-one]
105 nM | COc1cc(C(=O)N2CC[C@@H](OC(F)F)[C@@H](N)C2)cc2nc(-c3cc4ccc5nc4n3CCCCC[C@@H]3C[C@H]3C(=O)N[C@@H]5C)n(C)c12 [Example 6, (2~{R),5~{R},7~{R})-14-[5-[(3~{S},4~{R})-3-amino-4-(difluoromethoxy)piperidine-1-carbonyl]-7-methoxy-1-methyl-benzimidazol-2-yl]-2-methyl-3,13,19-triazatetracyclo[11.5.2.0^{5,7}.0^{16,20}] icosa-1(19),14,16(20),17-tetraen-4-one]
33 nM | C[C@H]1NC(=O)c2nccnc2CCCC(F)(F)Cn2c(-c3nc4cc(C(=O)N5C[C@H](N)[C@@H]6CC[C@H]5C6)cc(F)c4n3C3CC3)cc3ccc1nc32 [Example 483, (2~{R})-17-[5-[(1~{S},4~{R},5~{R})-4-amino-2-azabicyclo[3.2.1]octane-2-carbonyl]-1-cyclopropyl-7-fluoro-benzimidazol-2-yl]-14,14-difluoro-2-methyl-3,6,9,16,22-pentazatetracyclo[14.5.2.0^{5,10}.0^{19, 23}]tricosa-1(22),5(10),6,8,17,19(23),20-heptaen-4-one]
41 nM | COc1cc(C(=O)N2CC[C@@H](OC)[C@@H](N)C2)cc2nc(-c3cc4ccc5c(F)c4n3CC(F)(F)CCC[C@@H]3C[C@H]3C(=O)N[C@@H]5C)n(C)c12 [Example 648, (2~{R},5~{R},7~{R})-14-[5-[(3~{S},4~{R})-3-amino-4-methoxy-piperidine-1-carbonyl]-7-methoxy-1-methyl-benzimidazol-2-yl]-11,11,19-trifluoro-2-methyl-3,13-diazatetracyclo[11.5.2.0^ {5,7}.0^{16,20}] icosa-1(19),14,16(20), 17-tetraen-4-one]
41 nM | C[C@H]1NC(=O)[C@H]2[C@H](CCCC(F)(F)Cn3c(-c4nc5cc(C(=O)N[C@H]6CNCC[C@@H]6F)c(F)cc5n4C)cc4ccc1nc43)C2(F)F [Example 378, 6-fluoro-~{N}-[(3~{S},4~{S})-4-fluoro-3-piperidyl]-1-methyl-2-[(2~{R},5~{R},7~{S})-6,6,11,11-tetrafluoro-2-methyl-4-oxo-3,13,19-triazatetracyclo[11.5.2.0^{5,7}.0^{16,20}]icosa-1(19),14,16(20),17-tetraen-14-yl]benzimidazole-5-carboxamide]
69 nM | CC(C)n1c(-c2cc3ccc4nc3n2CCCCCc2nc(Cl)ccc2C(=O)N[C@@H]4C)nc2cc(C(=O)N3C[C@H](N)[C@@H]4CC[C@H]3C4)cc(F)c21 [Example 946, (2~{R})-17-[5-[(1~{S},4~ {R},5~{R})-4-amino-2-azabicyclo [3.2.1]octane-2-carbonyl]-7-fluoro-1-isopropyl-benzimidazol-2-yl]-8-chloro-2-methyl-3,9,16,22-tetrazatetracyclo[14.5.2.0^ {5,10}.0^{19,23}]tricosa-1(22),5(10),6,8,17,19(23),20-heptaen-4-one]
204 nM | COc1cc(C(=O)N2[C@H]3CC[C@@H]2[C@H](N)C3)cc2nc(-c3cc4ccc5nc4n3CCCCCCOc3ncccc3-5)n(C)c12 [Example 83, [(1~{R},2~{R},4~{S})-2-amino-7-azabicyclo[2.2.1]heptan-7-yl]-[7-methoxy-1-methyl-2-(8-oxa-6,15,21-triazatetracyclo[13.5.2.0^{2,7}.0^{18,22}]docosa-1(21),2,4,6,16,18(22),19-heptaen-16-yl)benzimidazol-5-yl]methanone]
32 nM | COc1cc(C(=O)N2[C@H]3CC[C@@H]2[C@H](N)C3)cc2nc(-c3cc4ccc5nc4n3C[C@@H]3C[C@@H]3COCCC(=O)N[C@@H]5C)n(C)c12 [Example 337, (3~{R},5~{S},12~{R})-18-[5-[(1~{R},2~{R},4~{S})-2-amino-7-azabicyclo[2.2.1]heptane-7-carbonyl]-7-methoxy-1-methyl-benzimidazol-2-yl]-12-methyl-7-oxa-1,11,20-triazatetracyclo[11.5.2.0^{3,5}.0^{16,19}] icosa-13(20),14,16(19),17-tetraen-10-one]
46 nM | COCCn1c(-c2cc3ccc4nc3n2CCCCC[C@@H]2C[C@H]2C(=O)N[C@@H]4C)nc2cc(C(=O)N3CCC[C@@H](N)C3)cc(OC)c21 [Example 433, (2~{R},5~{R},7~{R})-14-[5-[(3~{R})-3-aminopiperidine-1-carbonyl]-7-methoxy-1-(2-methoxyethyl)benzimidazol-2-yl]-2-methyl-3,13,19-triazatetracyclo[11.5.2.0^{5,7}.0^{16,20}] icosa-1(19),14,16(20),17-tetraen-4-one]
